Source: patent US7592326B2, “Method for stimulating the immune, inflammatory or neuroprotective response” (priority 2004, dated 2009)

How the values were obtained:
[1] = tested on: S. aureus strain NCH57; test: Mouse S. aureus pneumonia (proposed); format: in vivo; settings: 200 nmol 24- and 48 hours prior; 1×10^9 CFU NCH57
[2] = tested on: Human immature DCs; test: Maturation of human monocyte-derived DCs (surface markers, flow cytometry); format: cell-based; settings: 24 hours
Description: Buffy coats were obtained from healthy human volunteers and fractionated over Histopaque-1077. The peripheral blood mononuclear cells (PBMC) layer was recovered and erythrocyte-depleted by incubation in red blood cell lysis buffer for 5 minutes at room temperature. PBMCs were cultured in complete medium (RPMI 1640, 1% L-glutamine, 1% penicillin/streptomycin, and 10% low endotoxin FCS) for 2 hours in T75 flasks (Corning). Following incubation, nonadherent cells were removed by three washes with 1× PBS (Invitrogen, Carlsbad, Calif.). The remaining adherent cells were then cultured in complete medium supplemented with GM-CSF and IL-4 (50 ng/mL each). Human and murine IL-4 and GM-CSF were purchased from Peprotech (Rocky Hill, N.J.). On day 2 and day 4, the DC cultures received an additional dose of GM-CSF and IL-4 (50 ng/mL each). On day 5, non-adherent DC were harvested by gentle pipetting, counted, and plated in fresh medium containing GM-CSF and IL-4 (50 ng/mL each). […]
Surface expression of various markers was assessed using CellQuest analysis software on a FACScalibur (Becton-Dickinson) flow cytometer. Surface expression was determined using the following FITC- and PE-conjugated antibodies: CD86-FITC (Research Diagnostics), CCR7-PE (R&D Systems), CD80-FITC, CD83-FITC, HLA-DR-FITC (BD Pharmingen). The isotype control antibodies were used accordingly in all experiments and were purchased from Pharmingen. Human DC were incubated in 1% human AB serum/PBS and were incubated with rat anti-CD16/CD32 (BD Phamingen) to block non-specific binding. Total RNA was extracted using the RNeasy kit according to the manufacturer's protocol (Qiagen). […] Emitted fluorescence for each reaction was measured during the annealing/extension phase, and amplification plots were analyzed using the MX4000 software version 3.0 (Stratagene). Quantity values (i.e., copies) for gene expression were generated by comparison of the fluorescence generated by each sample with standard curves of known quantities. Next, the calculated number of copies was divided by the number of copies of the housekeeping gene GAPDH.

Nc1nc(=O)c2ncn([C@@H]3OC4COP(=O)(O)O[C@H]5[C@@H](O)[C@H](n6cnc7c(=O)nc(N)[nH]c76)O[C@@H]5COP(=O)(O)OC4C3O)c2[nH]1 (stereo partly shown) [c-di-GMP, Bis(3′→5′)-cyclic diguanylic acid]
survival [1]: greater survival
CD83 expression, net MFI ([2]; 200 uM c-di-GMP or LPS (positive control), untreated net MFI=4.89, FIG. 10A): 63.34
expression of maturation markers CD80, CD86, CCR7, and MHC class II ([2]; 200 uM, FIG. 10C): increase
concentration at which significant increases in surface CD83 begin ([2]; 5 to 500 uM, FIG. 10B): 32 µM
